# Test results published in patent US20030068615A1, “Polypeptides that bind HIV gp120 and related nucleic acids, antibodies, compositions, and methods of use” (priority 1999, published 2003).
# Values joined by “and” are separate entries in the source; they are usually repeats but may differ in a detail not shown here. Equal values may be shown once. Read-outs that look alike come from different tables or passages of the source.
# Target: HIV-1LAI envelope gp120 (Human immunodeficiency virus type 1 group M subtype B, UniProt P03377)
# Format: binding
# Settings: for Counts per 20′ Average-background: CCR5 18-mer scan, radiolabeled HIV-1LAI gp120; for Relative % of Control: mean of two syntheses and binding experiments ± average deviation, wild-type = 100%; for Binding Results For Window Length (counts bound-background), 9: 9-mer starting at the first residue of the printed sequence
# [1] = CXCR4 18-mer scan, background subtracted, empty control 0
# [2] = CXCR4 18-mer scan, empty control 412
# [3] = Panel E, 9-mers and 12-mers of CD4, empty control 571
# [4] = Panel F, sequential alanine replacements of CD4 polypeptides, duplicate series, empty control 569
# [5] = Panel D, 9-mers and 12-mers of CD4, empty control […]
# [6] = Panel C, 15-mers and 18-mers of CD4, empty control 556
# [7] = human CD4 21-mer scan, empty control 2075
# [8] = Panel A, 21-mers of CD4, empty control 515 and 617
# [9] = Panel B, 15-mers and 18-mers of CD4, empty control 575
# [10] = Panel G, alanine replacements and serial truncations (Z) of CD4 polypeptides, empty control 580
# [11] = STRL33 18-mer scan, background subtracted, first of two count columns
# [12] = STRL33 18-mer scan, background subtracted, second of two count columns
# [13] = STRL33 amino terminus, background subtracted
sequence,measurement,setting,value
VVFQFQHIMVGLILPGIV,radioactive counts recorded in twenty minutes,[1],589 counts
same,radioactive counts recorded in twenty minutes,[2],1001 counts
VSVKRVTQDPKLQMGKKLPLH,number of radioactive decays (counts) counted,,1848 counts
QKKVEFKID,COUNTS of radiolabeled gp120 retained,[3],575 counts
QKINVKQIAARLLPPLYS [CCR5 segment 21-38],Counts per 20′ Average-background,background subtracted,20 counts per 20′
THLLQGQALTLTLES,COUNTS of radiolabeled gp120 retained,[4],8659 counts and 5151 counts
HCCINPIIYAFVGEKFRN [CCR5 segment 289-],Counts per 20′ Average-background,background subtracted,200 counts per 20′
GLTANSDTH,COUNTS of radiolabeled gp120 retained,[5],481 counts
CTVLQNQKKVEFKIDIVV,COUNTS of radiolabeled gp120 retained,[6],553 counts
VLGGVAGLLLFIGLGIFFCVR [human CD4 401-421],number of radioactive decays (counts) counted,[7],3738 counts
KKVEFKIDIVVLAFQKAS,COUNTS of radiolabeled gp120 retained,[6],912 counts
FKIDIVVLAFQKASSIVYKKE,COUNTS of radiolabeled gp120 retained,[8],593 counts
SDTHLLQGQSLT,COUNTS of radiolabeled gp120 retained,[5],540 counts
VQLLVFGLT,COUNTS of radiolabeled gp120 retained,[5],815 counts
ASSIVYKKEGEQ,COUNTS of radiolabeled gp120 retained,[3],523 counts
TVNLYSSVLILAFISLDR,radioactive counts recorded in twenty minutes,[1],242 counts
same,radioactive counts recorded in twenty minutes,[2],654 counts
EVNLVVMRATQLQKNLTCEVW [human CD4 311-331],number of radioactive decays (counts) counted,[7],2183 counts
THLLQGQSLTLTLES,COUNTS of radiolabeled gp120 retained,[9],1874 counts
same,COUNTS of radiolabeled gp120 retained,[4],7756 counts and 6545 counts and 4787 counts and 5947 counts
same,COUNTS of radiolabeled gp120 retained,[10],10850 counts and 9756 counts
QVEFSFPLLA,Gp120 Bound (counts),"active CD4 fragments: 9-, 12-, 15-, 18- and 21-mers, background not subtracted",1205 counts
IVVVKATKAYNQQAKRMT,radioactive counts recorded in twenty minutes,[11],166.5 counts
same,radioactive counts recorded in twenty minutes,[12],43.5 counts
SVYTRSTGEQEISVGL [CCR5 segment 337-],Counts per 20′ Average-background,background subtracted,47 counts per 20′
YAGIHEWVFGQVMCKSLL [STRL33 segment 89-106],radioactive counts recorded in twenty minutes,[11],5911.5 counts
same,radioactive counts recorded in twenty minutes,[12],6245.5 counts
MEGISIYTSDNYTEAMGS,Relative % of Control,CXCR4 (1-18) alanine variants,56 ± 7%
FPLIIKNLK,COUNTS of radiolabeled gp120 retained,[5],601 counts
FGLTANSDTHLL,COUNTS of radiolabeled gp120 retained,[5],571 counts
AKRFCKCCSIFQQEAPER [CCR5 segment 317-],Counts per 20′ Average-background,background subtracted,64 counts per 20′
FQKASSIVY,COUNTS of radiolabeled gp120 retained,[3],568 counts
LNPILYAFLGAKFKTSAQ [CXCR4 segment 297-314],radioactive counts recorded in twenty minutes,[1],274 counts
same,radioactive counts recorded in twenty minutes,[2],686 counts
VEDQKEEVQLLVFGL,COUNTS of radiolabeled gp120 retained,[9],3816 counts
FVGNMLVILILINCKRLK [CCR5 segment 45-62],Counts per 20′ Average-background,background subtracted,62 counts per 20′
AFQKASSIVYKKEGE,COUNTS of radiolabeled gp120 retained,[6],544 counts
KASSIVYKKEGEQVEFSF,COUNTS of radiolabeled gp120 retained,[6],536 counts
VFASLPGIIFTRSQKEGL [CCR5 segment 157-],Counts per 20′ Average-background,background subtracted,54 counts per 20′
TVILILAFFACWLPYYIG,radioactive counts recorded in twenty minutes,[1],323 counts
same,radioactive counts recorded in twenty minutes,[2],735 counts
VSEADDRYICDRFYPNDL [CXCR4 segment 177-194],radioactive counts recorded in twenty minutes,[1],157 counts
same,radioactive counts recorded in twenty minutes,[2],569 counts
MEGISIYTSDNYAEEMGS,Relative % of Control,CXCR4 (1-18) alanine variants,70 ± 6%
TVLQNQKKV,COUNTS of radiolabeled gp120 retained,[3],534 counts
VLAFQKASSIVYKKEGEQVEF,COUNTS of radiolabeled gp120 retained,[8],1793 counts
same,number of radioactive decays (counts) counted,[7],3566 counts
TANSDTHLLQGQ,COUNTS of radiolabeled gp120 retained,[5],549 counts
SDTYICEVEDQKEEV,COUNTS of radiolabeled gp120 retained,[9],993 counts
LILAFISLDRYLAIVHAT,radioactive counts recorded in twenty minutes,[1],107 counts
same,radioactive counts recorded in twenty minutes,[2],519 counts
"PFRELLLVLQLALLPAATQGK [human CD4, printed 16-26]",number of radioactive decays (counts) counted,[7],4356 counts
LRSMTDKYRLHLSVADLL [CXCR4 segment 69-86],radioactive counts recorded in twenty minutes,[1],160 counts
same,radioactive counts recorded in twenty minutes,[2],572 counts
FNDSSQEEEQAFLQFSKV,"Binding Results For Window Length (counts bound-background), 9",[13],246 counts
same,"Binding Results For Window Length (counts bound-background), 12","STRL33 amino terminus, 12-mer starting at the first residue of the printed sequence, background subtracted",470 counts
same,"Binding Results For Window Length (counts bound-background), 15","STRL33 amino terminus, 15-mer starting at the first residue of the printed sequence, background subtracted",4089 counts
same,"Binding Results For Window Length (counts bound-background), 18","STRL33 amino terminus, 18-mer starting at the first residue of the printed sequence, background subtracted",4678 counts
EVQLLVFGLTANSDT,COUNTS of radiolabeled gp120 retained,[9],2689 counts
QAFLQFSKV,"Binding Results For Window Length (counts bound-background), 9",[13],2600 counts
EVEDQKEEV,COUNTS of radiolabeled gp120 retained,[5],587 counts
GEQVEFSFPLAFAVE,COUNTS of radiolabeled gp120 retained,[10],20627 counts and 19516 counts
SIFQQEAPERASSVYTRS [CCR5 segment 325-],Counts per 20′ Average-background,background subtracted,100 counts per 20′
EEVQLLVFGLTA,COUNTS of radiolabeled gp120 retained,[5],3261 counts
EEVQLLVFGLTANSDTHL,COUNTS of radiolabeled gp120 retained,[9],783 counts
VQLLVFGLTANSDTHLLQ,COUNTS of radiolabeled gp120 retained,[9],673 counts
FKIDIVVLAFQKASS,COUNTS of radiolabeled gp120 retained,[6],1001 counts
LLQGQSLTL,COUNTS of radiolabeled gp120 retained,[5],568 counts
VYKKEGEQVEFSFPLAFTVEK [human CD4 211-231],COUNTS of radiolabeled gp120 retained,[8],2429 counts
same,number of radioactive decays (counts) counted,[7],14740 counts
GEQVEFSAPLAFTVE,COUNTS of radiolabeled gp120 retained,[10],7767 counts and 7378 counts
IVYKKEGEQVEF,COUNTS of radiolabeled gp120 retained,[3],533 counts
KEGEQVEFSFPLAFTVEKLTG,COUNTS of radiolabeled gp120 retained,[8],972 counts
YICEVEDQKEEVQLLVFG,COUNTS of radiolabeled gp120 retained,[9],4611 counts
QKASSIVYKKEGEQVEFSFPL,COUNTS of radiolabeled gp120 retained,[8],24959 counts
GEAVEFSFPLAFTVE,COUNTS of radiolabeled gp120 retained,[10],19756 counts and 17500 counts
MCKSLLGIYTINFYTSML,radioactive counts recorded in twenty minutes,[11],1505.5 counts
same,radioactive counts recorded in twenty minutes,[12],1283.5 counts
EVEDQKEEVQLL,COUNTS of radiolabeled gp120 retained,[5],508 counts
NKIFLPTIYSIIFLTGIV [CXCR4 segment 37-54],radioactive counts recorded in twenty minutes,[1],138 counts
same,radioactive counts recorded in twenty minutes,[2],550 counts
WDQGNFPLIIKNLKIEDS,COUNTS of radiolabeled gp120 retained,[9],626 counts
DSDTYICEVEDQKEE,COUNTS of radiolabeled gp120 retained,[9],973 counts
VSKREKAVWVLNPEAGMWQCL [human CD4 351-371],number of radioactive decays (counts) counted,[7],2034 counts
IKNLKIEDS,COUNTS of radiolabeled gp120 retained,[5],557 counts
PLAFTVEKLTGSGELWWQ,COUNTS of radiolabeled gp120 retained,[6],650 counts
MEGISIYTSDNYTEEMGA,Relative % of Control,CXCR4 (1-18) alanine variants,79 ± 1%
IVLLLNTFQEFFGLNNCS,Counts per 20′ Average-background,background subtracted,2134 counts per 20′
AVRLIFTIMTVYFLFWAP [CCR5 segment 233-],Counts per 20′ Average-background,background subtracted,62 counts per 20′
PLIIKNLKI,COUNTS of radiolabeled gp120 retained,[5],697 counts
KLSHSKGHQKRKALKTTV [CXCR4 segment 225-242],radioactive counts recorded in twenty minutes,[1],130 counts
same,radioactive counts recorded in twenty minutes,[2],542 counts
EFSFPLAFTVEKLTG,COUNTS of radiolabeled gp120 retained,[6],920 counts
GCEFENTVHKWISITEAL [CXCR4 segment 273-290],radioactive counts recorded in twenty minutes,[1],264 counts
same,radioactive counts recorded in twenty minutes,[2],676 counts
LKIEDSDTY,COUNTS of radiolabeled gp120 retained,[5],492 counts
GEKFRNYLLVFFQKHIAK [CCR5 segment 301-],Counts per 20′ Average-background,background subtracted,69 counts per 20′
MIVYFLFWAPYNIVLLLN [CCR5 segment 241-],Counts per 20′ Average-background,background subtracted,214 counts per 20′
PLAFTVEKLTGSGELWWQAER,COUNTS of radiolabeled gp120 retained,[8],2647 counts
VLQNQKKVE,COUNTS of radiolabeled gp120 retained,[3],556 counts
DQGNFPLIIKNLKIE,COUNTS of radiolabeled gp120 retained,[9],635 counts
DTYICEVED,COUNTS of radiolabeled gp120 retained,[5],1043 counts
LAFQKASSIVYKKEGEQVEFS,COUNTS of radiolabeled gp120 retained,[8],1410 counts
KVEFKIDIVVLAFQK,COUNTS of radiolabeled gp120 retained,[6],1051 counts
EQVEFSFPLAFTVEKLTG,COUNTS of radiolabeled gp120 retained,[6],798 counts
LGLVLPLLVMVICYSGIL,Counts per 20′ Average-background,background subtracted,180 counts per 20′
FSFPLAFTVEKLTGSGELWWQ,COUNTS of radiolabeled gp120 retained,[8],4163 counts
same,number of radioactive decays (counts) counted,[7],9673 counts
FPLAFTVEKLTG,COUNTS of radiolabeled gp120 retained,[3],622 counts
EGEQVEFSF,COUNTS of radiolabeled gp120 retained,[3],735 counts
MDYQVSSPIYDINYYTSE,Counts per 20′ Average-background,background subtracted,735 counts per 20′
same,Relative % of Control,CCR5 (1-18) alanine variants,100%
QGNFPLIIKNLKIED,COUNTS of radiolabeled gp120 retained,[9],509 counts
DRYLAVVHAVFALKARTV,Counts per 20′ Average-background,background subtracted,62 counts per 20′
FIGLGIFFCVRCRHRRRQAER,number of radioactive decays (counts) counted,[7],1900 counts
EFSFPLAFTVEK,COUNTS of radiolabeled gp120 retained,[3],585 counts
MDYQVSAPIYDINYYTSE,Relative % of Control,CCR5 (1-18) alanine variants,56 ± 2%
VVLAFQKASSIVYKKEGE,COUNTS of radiolabeled gp120 retained,[6],560 counts
HLLQGQSLTLTL,COUNTS of radiolabeled gp120 retained,[5],701 counts
QAKRMTWGKVTSLLIWVI,radioactive counts recorded in twenty minutes,[11],−71.5 counts
same,radioactive counts recorded in twenty minutes,[12],−31.5 counts
THLAQGQSLTLTLES,COUNTS of radiolabeled gp120 retained,[4],7701 counts and 5120 counts
EEVQLLVFGLTAASD,COUNTS of radiolabeled gp120 retained,[4],19200 counts and 19390 counts
